Consider 16 molecules from PubChem BioAssay (NCI).

Some test systems named below: CCRF-CEM leukemia; K-562 leukemia; SK-MEL-2 melanoma; SN12C renal; SNB-19 CNS; TK-10 renal; U251 CNS; UACC-62 melanoma; HT29 colon.
What all share (assay): NCI-60 cell line screen, 48 h

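Results reflect a 48-hour exposure of cells in 96-well plates to compound at five concentrations. GI50: concentration for 50% inhibition of growth. The concentration for full growth arrest is given as TGI.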

Regarding `Cc1ccc(C2NC(=O)c3ccccc3N2)s1` (stereo not given), the TGI is above 100 µM in the assay on CCRF-CEM leukemia; above 100 µM with K-562 leukemia; 42 µM with SK-MEL-2 melanoma; 52.8 µM in the assay with SN12C renal; above 100 µM in the assay on SNB-19 CNS; above 100 µM in the assay on TK-10 renal. Moreover, the TGI in the assay with U251 CNS and in the assay with UACC-62 melanoma was above 100 µM throughout.

As for `C#CCN(N=O)C(=O)NC(CCCNC(=O)OCc1ccccc1)C(=O)OCc1ccccc1` (stereo not given), the TGI in the assay on CCRF-CEM leukemia was 52 µM; in the assay on HT29 colon, above 100 µM; in the assay on K-562 leukemia it was above 100 µM; with SK-MEL-2 melanoma it was above 100 µM; in the assay with SN12C renal, above 100 µM; in the assay on SNB-19 CNS, above 100 µM. Further, the TGI with TK-10 renal, with U251 CNS and in the assay on UACC-62 melanoma was above 100 µM in each case.

With `CC(=O)OC1CC2Oc3ccc(C)cc3C(C)(O2)C1=O` (stereo not given), the TGI with CCRF-CEM leukemia, in the assay with HT29 colon, with K-562 leukemia, in the assay with SN12C renal, in the assay with SNB-19 CNS and in the assay with TK-10 renal was above 100 µM in each case. Also, the TGI in the assay with U251 CNS and in the assay on UACC-62 melanoma was above 100 µM throughout.

As to `CC(=O)[O-].[Mn+3].[O-]c1ccccc1C=NCCN=Cc1ccccc1[O-]`, the GI50 with CCRF-CEM leukemia was 25.1 µM; with HT29 colon, 92.3 µM; with K-562 leukemia, 30.3 µM; in the assay with SN12C renal, above 100 µM; with SNB-19 CNS it was above 100 µM; with TK-10 renal, above 100 µM. In addition, the GI50 in the assay on U251 CNS and in the assay on UACC-62 melanoma was above 100 µM each time. The TGI with CCRF-CEM leukemia, in the assay with HT29 colon, in the assay with K-562 leukemia, with SN12C renal, in the assay on SNB-19 CNS and in the assay on TK-10 renal was above 100 µM in each case. Further, the TGI in the assay on U251 CNS and in the assay on UACC-62 melanoma was above 100 µM throughout.

`COc1ccc(N/N=C(\CCN(C)C)c2ccccc2)cc1`: the TGI is 23.5 µM with CCRF-CEM leukemia; 23.6 µM in the assay on HT29 colon; 7.31 µM with K-562 leukemia; 18.9 µM in the assay with SK-MEL-2 melanoma; 17.2 µM in the assay on SN12C renal; 14.5 µM in the assay on SNB-19 CNS. Moreover, the TGI with TK-10 renal came to 6.02 µM; in the assay with U251 CNS it was 4.55 µM; in the assay on UACC-62 melanoma, 6.23 µM.

In the case of `CN(C)CCNC(=O)c1cccc2c(Nc3ccc(S(N)(=O)=O)cc3)c3ccccc3nc12`, the TGI in the assay on HT29 colon came out at 8.35 µM; with K-562 leukemia it was 9.61 µM; in the assay with SK-MEL-2 melanoma, 3.69 µM; in the assay on SN12C renal it was 3.9 µM; in the assay on SNB-19 CNS it was 10.7 µM; with U251 CNS it was 4.69 µM. The same molecule displayed a TGI with UACC-62 melanoma of 3.42 µM.

As to `NC(=O)c1coc(C2OC(CO)C(O)C2O)n1` (stereo not given), the TGI in the assay on CCRF-CEM leukemia, in the assay on HT29 colon, with K-562 leukemia, in the assay with SK-MEL-2 melanoma, in the assay on SN12C renal and with SNB-19 CNS was above 100 µM each time. The TGI in the assay with TK-10 renal, in the assay with U251 CNS and in the assay with UACC-62 melanoma was above 100 µM each time.

As for `O=c1cc(-c2ccccc2)oc2cc(O)cc(O)c12`, the TGI in the assay with CCRF-CEM leukemia was 59.6 µM; with HT29 colon it was above 100 µM; in the assay on K-562 leukemia, 63.1 µM; in the assay with SK-MEL-2 melanoma, 39.6 µM; in the assay on SN12C renal, 54.6 µM; in the assay on SNB-19 CNS, 88.8 µM. In addition, the TGI with TK-10 renal was 72.9 µM; in the assay with U251 CNS it was 87.5 µM; in the assay with UACC-62 melanoma, 76.5 µM.

For the molecule `COc1ccc(Cc2cc3c(cc2OCC(=O)O)OCO3)cc1`, the TGI in the assay on CCRF-CEM leukemia, in the assay with HT29 colon, in the assay on K-562 leukemia, in the assay on SK-MEL-2 melanoma, in the assay on SN12C renal and in the assay on SNB-19 CNS was above 100 µM in each case. The TGI with TK-10 renal and in the assay on UACC-62 melanoma was above 100 µM throughout.

Take `O=C1c2ccccc2NC1(c1ccccc1)c1c(-c2ccccc2)[nH]c2ccccc12` (stereo not given): the TGI in the assay with CCRF-CEM leukemia, in the assay with HT29 colon, in the assay on K-562 leukemia, in the assay with SK-MEL-2 melanoma, in the assay with SN12C renal and in the assay on SNB-19 CNS was above 100 µM each time. Also, the TGI with U251 CNS and with UACC-62 melanoma was above 100 µM throughout.

For `CN(C)CCSc1cccc(-c2cc(-c3cccc(SCCN(C)C)c3)nc(SCCN(C)C)n2)c1`, the TGI in the assay with CCRF-CEM leukemia came to 4.8 µM; in the assay on HT29 colon, 3.4 µM; in the assay with K-562 leukemia, 3.1 µM; in the assay with SK-MEL-2 melanoma, 21.1 µM; in the assay on SN12C renal it was 24.7 µM; in the assay with TK-10 renal it was 9.65 µM. Further, the TGI turned out to be 3.54 µM with U251 CNS and 32 µM with UACC-62 melanoma.

Turning to `O=C(Nc1cccc(Cc2cccc(NC(=O)c3ccccc3)c2)c1)c1ccccc1`, the TGI in the assay on CCRF-CEM leukemia was above 100 µM; in the assay with HT29 colon, above 100 µM; in the assay on K-562 leukemia it was above 100 µM; in the assay on SK-MEL-2 melanoma, above 100 µM; with SN12C renal, above 100 µM; with SNB-19 CNS, 94.6 µM. Further, the TGI in the assay with TK-10 renal, in the assay with U251 CNS and in the assay on UACC-62 melanoma was above 100 µM throughout.

`Cc1nc(-c2ccccc2)cc2c1c(=O)oc1ccccc12`: the TGI with CCRF-CEM leukemia, with HT29 colon, in the assay with K-562 leukemia, in the assay with SK-MEL-2 melanoma, with SN12C renal and with SNB-19 CNS was above 100 µM each time. The TGI in the assay with U251 CNS and in the assay with UACC-62 melanoma was above 100 µM throughout.

Turning to `CC(=O)O[C@H]1CCC2[C@@H]3CCC4=C(O)C(=O)C(C#N)C[C@]4(C)C3CC[C@@]21C` (stereo not given in full), the TGI with CCRF-CEM leukemia, with HT29 colon, in the assay with K-562 leukemia, in the assay with SK-MEL-2 melanoma, in the assay with SN12C renal and with SNB-19 CNS was above 100 µM each time. The TGI in the assay on TK-10 renal, with U251 CNS and with UACC-62 melanoma was above 100 µM in each case.

Take `O=C(c1ccccc1)c1oc2ccc(Br)cc2c1-c1cnn(-c2ccccc2)c1`: the TGI in the assay on CCRF-CEM leukemia, in the assay with HT29 colon, in the assay with K-562 leukemia, in the assay on SK-MEL-2 melanoma, in the assay with SN12C renal and with SNB-19 CNS was above 100 µM throughout. Besides, in the assay with UACC-62 melanoma, the TGI was above 100 µM.

With `CC1(C)OB(O)OC1(C)C`, the TGI with CCRF-CEM leukemia, in the assay on HT29 colon, in the assay with K-562 leukemia, in the assay on SK-MEL-2 melanoma, in the assay with SN12C renal and with SNB-19 CNS was above 100 µM throughout. The TGI in the assay with TK-10 renal and with UACC-62 melanoma was above 100 µM throughout.
